Like-named read-outs stand apart in the source and are kept apart here.
How the values were obtained:
healthy subjects [1] = test: Circulating plasma catecholamines, clinical study; format: in vivo, humans; conditions: peak change from baseline, mean±SEM, 16 subjects
Procedure: (§1) The washout periods between the sessions were at least 10 days long.
(§2) Identical placebo (lactose) capsules were prepared. […] Drugs were administered without food.
Plasma concentrations of copeptin were also determined in this study as reported elsewhere. […] No hydrolysis was performed. Thus, the values for HMMA represent the drug concentrations of the non-conjugated metabolite. All blood samples were collected on ice and centrifuged within 10 min at 4°C. The plasma was then stored at –20°C until the analysis.

[2] = set-up: method as in earlier work; conditions: cited from earlier work
NET [3] = target: T1, NET (Homo sapiens, UniProt P23975); test: Radioligand binding, [3H]-nisoxetine, HEK 293 membranes; set-up: expressed in transfected cells; host or cells: HEK 293 cells (Invitrogen), stably transfected
DAT [4] = target: T2, DAT (Homo sapiens, UniProt Q01959); test: cell-based
healthy subjects [5] = test: Adjective Mood Rating Scale (AMRS), clinical study; format: in vivo, humans; conditions: peak change from baseline, mean±SEM, 16 subjects
Procedure: as §1, §2
(§3) The psychometric measures included Visual Analog Scales (VAS), [10], the Adjective Mood Rating Scale (AMRS), and 5-Dimensions of Altered States of Consciousness (5D-ASC), [23]. […] The VASs were presented as 100 mm horizontal lines marked “not at all" on the left and “extremely" on the right. The VASs for “closeness to others," “open," and “talkative" were bidirectional (±50 mm). The VASs were administered 4 h before and 0, 0.33, 1, 1.5, 2, 2.5, 3, 3.5, 4, and 5 h after MDMA or placebo administration. […] The AMRS contains subscales for activity, extroversion and introversion, well-being, emotional excitation, anxiety-depression, and dreaminess. The 5D-ASC rating scale measures alterations in mood, perception, experience of self in relation to the environment, and thought disorder. The 5D-ASC rating scale comprises five subscales or dimensions and 11 lower-order scales. The 5D-ASC dimension “oceanic boundlessness" (OB, 27 items) measures derealization and depersonalization associated with positive emotional states, ranging from heightened mood to euphoric exaltation. […] The global ASC score was determined by adding the OB, AED, and VR scores. The 5D-ASC scale was administered 4 h after MDMA or placebo administration.
(§4) Clinical data values were transformed to differences from baseline. Peak effects (Emax) were determined for repeated measures. Emax values were compared using General Linear Models repeated-measures analysis of variance, with drug as within-subject factor, using Statistica 6.0 software (StatSoft, Tulsa, OK). Tukey post hoc comparisons were performed based on significant main effects of treatment. Additional analyses of variance were performed, with period as factor to exclude period effects. Correlation analyses were performed using Pearson’s correlations. The criterion for significance was p<0.05. Mean arterial pressure (MAP) was calculated from diastolic blood pressure and systolic blood pressure using the following formula: MAP = DBP+(SBP - DBP)/3.

healthy subjects [6] = test: Soft-link PK-PD model, MDMA plasma concentration vs VAS any drug effect; format: in vivo, humans; conditions: for EC50: Homo sapiens
Source text: PK-PD modeling: First, a soft-link PK-PD model was used to evaluate the in vivo relationship between the concentration of MDMA and subjective effect of the drug. The change in the VAS for any drug effect was used as the pharmacodynamic measure in each individual. Because we observed clockwise hysteresis in the effect-concentration relationship over time, we used PK-PD data pairs within the ascending part of the individual curves up to Emax or Cmax. Our estimate of Emax, which should represent the maximal response portion of the dose-response curve, may already have been affected by tolerance. […] Based on the good brain penetration of MDMA and absence of a time lag, we assumed rapid equilibration between plasma and the central compartment (brain). […] The sigmoid Emax model provided a better fit than a simple Emax or linear model. Data pooling was used because only few data pairs were available per subject. Non-linear regression was used to obtain parameter estimates. Second, we also used a hard-link PK-PD model to predict in vivo PD effects based on the in vitro concentration-response data linked to the observed individual in vivo PK. […] Similar to the soft-link PK-PD model, a single compartment PK model (plasma = brain concentration) was used, and only ascending PK or PD values were included. The in vivo data were linked to the PK of each individual, and a mean predicted effect-time curve was established.

DAT [7] = target: T2, DAT; test: Radioligand binding, [3H]-WIN35,428, HEK 293 membranes; set-up: expressed in transfected cells; host or cells: HEK 293 cells (Invitrogen), stably transfected
healthy subjects [8] = test: Physiologic measures (blood pressure, heart rate, body temperature), clinical study; format: in vivo, humans; conditions: peak change from baseline, mean±SEM, 16 subjects
Procedure: as §1, §2
Physiologic measures were assessed repeatedly 4, 3, 2, and 1 h before and 0, 0.33, 0.66, 1, 1.5, 2, 2.5, 3, 4, 5, and 6 h after MDMA or placebo administration. Heart rate, systolic blood pressure, and diastolic blood pressure were measured using an OMRON M7 blood pressure monitor (OMRON Healthcare Europe, Hoofddorp, The Netherlands). Measures were taken twice per time point with an interval of 1 min, and the average was used for the analysis. Core (tympanic) temperature was assessed using a GENIUS 2 ear thermometer (Tyco Healthcare Group, Watertown, NY). […] Adverse effects were assessed using the List of Complaints (LC), which consists of 66 items that yield a total adverse effects score and reliably measure physical and general discomfort.
as §4

SERT = SERT (Homo sapiens, UniProt P31645); conditions: % of plasma sample dilution, undiluted plasma = 100%; plasma 120 min after MDMA/placebo; mean±SEM
HEK 293 cells = test: Toxilight toxicity assay, cell integrity; format: cell-based, human
NET [9] = target: T1, NET; conditions: % of plasma sample dilution, undiluted plasma = 100%; plasma 120 min after MDMA/placebo; mean±SEM
healthy subjects [10] = test: 5-Dimensions of Altered States of Consciousness (5D-ASC), clinical study; format: in vivo, humans; conditions: placebo-placebo vs placebo-MDMA
Procedure: as §1, §2, §3

T1 sequence (P23975 whole entry): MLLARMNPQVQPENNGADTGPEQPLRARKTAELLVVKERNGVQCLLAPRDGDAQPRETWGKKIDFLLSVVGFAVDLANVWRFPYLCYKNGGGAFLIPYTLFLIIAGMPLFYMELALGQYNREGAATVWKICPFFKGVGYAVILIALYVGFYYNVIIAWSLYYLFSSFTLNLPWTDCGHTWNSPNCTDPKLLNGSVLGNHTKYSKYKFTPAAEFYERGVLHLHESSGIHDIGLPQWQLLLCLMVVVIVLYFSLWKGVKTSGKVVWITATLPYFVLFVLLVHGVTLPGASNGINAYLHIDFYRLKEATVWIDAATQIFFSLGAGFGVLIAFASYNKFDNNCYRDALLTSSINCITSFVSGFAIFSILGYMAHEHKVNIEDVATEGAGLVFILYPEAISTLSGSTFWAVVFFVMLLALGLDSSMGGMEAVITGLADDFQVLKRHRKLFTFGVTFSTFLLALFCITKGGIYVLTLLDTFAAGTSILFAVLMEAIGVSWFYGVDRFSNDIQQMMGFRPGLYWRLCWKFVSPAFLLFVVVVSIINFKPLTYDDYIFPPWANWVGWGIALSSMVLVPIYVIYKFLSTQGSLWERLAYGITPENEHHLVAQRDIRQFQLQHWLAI
T2 sequence (Q01959 whole entry): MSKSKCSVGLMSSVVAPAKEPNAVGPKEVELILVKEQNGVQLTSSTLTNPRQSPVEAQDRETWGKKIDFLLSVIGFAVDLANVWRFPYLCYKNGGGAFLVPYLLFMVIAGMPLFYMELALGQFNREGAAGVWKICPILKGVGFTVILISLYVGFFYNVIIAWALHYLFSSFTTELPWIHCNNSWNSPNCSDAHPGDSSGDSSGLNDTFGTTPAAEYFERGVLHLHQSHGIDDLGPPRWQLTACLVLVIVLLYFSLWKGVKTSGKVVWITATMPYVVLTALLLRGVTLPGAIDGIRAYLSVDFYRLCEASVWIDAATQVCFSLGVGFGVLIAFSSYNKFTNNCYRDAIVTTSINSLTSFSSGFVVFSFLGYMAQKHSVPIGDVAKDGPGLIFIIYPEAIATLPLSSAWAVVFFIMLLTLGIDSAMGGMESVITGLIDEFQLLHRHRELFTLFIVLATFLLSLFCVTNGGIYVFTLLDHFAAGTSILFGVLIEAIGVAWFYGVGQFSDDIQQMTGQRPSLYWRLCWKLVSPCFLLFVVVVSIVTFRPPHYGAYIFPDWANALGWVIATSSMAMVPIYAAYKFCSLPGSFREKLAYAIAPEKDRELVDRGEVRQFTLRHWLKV
SERT, sequence (P31645 whole entry): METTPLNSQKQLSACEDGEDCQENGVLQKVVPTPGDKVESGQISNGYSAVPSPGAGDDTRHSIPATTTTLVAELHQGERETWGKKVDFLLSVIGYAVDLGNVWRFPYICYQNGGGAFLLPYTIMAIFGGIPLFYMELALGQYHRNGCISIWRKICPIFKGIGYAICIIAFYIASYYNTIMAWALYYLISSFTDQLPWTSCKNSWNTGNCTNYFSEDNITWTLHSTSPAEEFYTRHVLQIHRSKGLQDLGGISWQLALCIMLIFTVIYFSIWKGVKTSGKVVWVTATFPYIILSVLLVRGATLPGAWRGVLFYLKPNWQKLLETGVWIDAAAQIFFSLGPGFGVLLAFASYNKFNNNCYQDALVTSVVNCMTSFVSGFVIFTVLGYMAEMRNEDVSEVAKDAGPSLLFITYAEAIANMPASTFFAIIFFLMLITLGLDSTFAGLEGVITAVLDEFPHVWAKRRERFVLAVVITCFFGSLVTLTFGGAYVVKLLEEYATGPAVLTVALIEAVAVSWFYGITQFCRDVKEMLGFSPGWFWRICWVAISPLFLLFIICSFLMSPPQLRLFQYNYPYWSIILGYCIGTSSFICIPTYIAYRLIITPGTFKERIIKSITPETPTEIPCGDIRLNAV

SMILES: CNC(C)Cc1ccc2c(c1)OCO2 (stereo not drawn) [MDMA, 3,4-methylenedioxymethamphetamine]
- Circulating Epinephrine, Emax (healthy subjects [1]): 0.50 ± 0.12 nM
- Circulating Norepinephrine, Emax (healthy subjects [1]): 0.44 ± 0.12 nM
- Mean duration of subjective and cardiovascular effects [2]: 3.5 h
- Time within which effects completely subside [2]: 5 to 6 h
- Ki (NET [3]): 22.4 ± 14.6 µM
- Ki (DAT [4]): 16.7 µM
- AMRS Activity, Emin (healthy subjects [5]): −4.69±1.04
- AMRS Dreaminess, Emax (healthy subjects [5]): 2.94±0.66
- AMRS Emotional excitation, Emax (healthy subjects [5]): 4.94±0.97
- AMRS Extroversion, Emax (healthy subjects [5]): 3.50±0.61
- AMRS Introversion, Emax (healthy subjects [5]): 2.62±0.65
- AMRS Well-being, Emax (healthy subjects [5]): 7.06±1.01
- EC50 (healthy subjects [6]; second statement, in brackets, read-out: EC50 of the PK-PD curve in humans): 0.38 µM
- EC50 (healthy subjects [6]; second statement, read-out: EC50 of the PK-PD curve in humans): 0.074 µg/mL
- EC50 (healthy subjects [6]; sigmoid Emax model, in brackets, read-out: EC50 of in vivo PK-PD relationship (MDMA plasma concentration)): 0.48 µM
- EC50 (healthy subjects [6]; sigmoid Emax model, pooled data, read-out: EC50 of in vivo PK-PD relationship (MDMA plasma concentration)): 0.0925 ± 0.0076 µg/mL
- Emax of in vivo PK-PD relationship (any drug effect) (healthy subjects [6]; sigmoid Emax model, pooled data): 93.8±7.3%
- Ki (DAT [7]): 6.52 ± 2.24 µM
- DPB, Emax (healthy subjects [8]; diastolic blood pressure): 22.13±2.08 mm Hg
- MAP, Emax (healthy subjects [8]; mean arterial pressure): 21.76±2.73 mm Hg
- Heart rate, Emax (healthy subjects [8]): 26.06±2.77 beats/min
- SBP, Emax (healthy subjects [8]; systolic blood pressure): 29.94±3.41 mm Hg
- Body temperature, Emax (healthy subjects [8]; tympanic): 0.54±0.07 °C
- Ex vivo binding (IC50%) SERT (SERT): >25%
- Cell integrity after treatment (HEK 293 cells): confirmed
- Ex vivo binding (IC50%) NET (NET [9]): 23.4±0.7%
- Effect on ASC sum score, OB, AED and VR dimensions (healthy subjects [10]): significantly increased

Source: article PMC3344887 (PLoS ONE, 2012)
